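How tested: cells in 96-well plates exposed to compound for 48 hours at five concentrations. GI50: concentration for 50% inhibition of growth.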 The source made the active and inactive calls. Rule as the data show it: active = GI50 up to about 1.1 µM and inactive = higher.
How the values were obtained:
Assay in all cases: NCI tumour cell line growth inhibition, 48 h
NCI-H460 = system: NCI-H460
Hs-578T = system: Hs-578T
SK-MEL-28 = system: SK-MEL-28
Malme-3M = system: Malme-3M
SK-MEL-5 = system: SK-MEL-5
IGROV-1 = system: IGROV-1
HCT-15 = system: HCT-15
KM12 = system: KM12
OVCAR-4 = system: OVCAR-4
LOX IMVI = system: LOX IMVI
NCI-H226 = system: NCI-H226
HOP-62 = system: HOP-62
MOLT-4 = system: MOLT-4
HCT-116 = system: HCT-116
RXF 393 = system: RXF 393
T47D = system: T47D
NCI-H522 = system: NCI-H522
HT-29 = system: HT-29
RPMI-8226 = system: RPMI-8226

SMILES | GI50 (NCI-H460) | GI50 (Hs-578T) | GI50 (SK-MEL-28) | GI50 (Malme-3M) | GI50 (SK-MEL-5) | GI50 (IGROV-1) | GI50 (HCT-15) [µM] | GI50 (KM12) | GI50 (OVCAR-4) | GI50 (LOX IMVI) | GI50 (NCI-H226) | GI50 (HOP-62) | GI50 (MOLT-4) | GI50 (HCT-116) | GI50 (RXF 393) | GI50 (T47D) | GI50 (NCI-H522) | GI50 (HT-29) | GI50 (RPMI-8226)
N=C(N)SCc1ccc(Cl)cc1Cl.O=[N+]([O-])c1c(O)c(Cl)cc(Cl)c1Cl | 10.6 µM (inactive) | 20.7 µM (inactive) | 28.9 µM (inactive) | 15.6 µM (inactive) | 15.3 µM (inactive) | 17.8 µM (inactive) | 13.3 | 13.7 µM (inactive) | 12 µM (inactive) | 16.7 µM (inactive) | 20.5 µM (inactive) | 14.5 µM (inactive) | 7.4 µM (inactive) | 11.8 µM (inactive) | 12.8 µM (inactive) | 9.82 µM (inactive) | 10.3 µM (inactive) | 11 µM (inactive) | 1.81 µM (inactive)
COc1ccc(OC)c2c1C(=O)C(O)=C(Cl)C2=O | > 100 µM (inactive) | > 100 µM (inactive) | > 100 µM (inactive) | > 100 µM (inactive) | > 100 µM (inactive) | > 100 µM (inactive) | > 100 | > 100 µM (inactive) | > 100 µM (inactive) | > 100 µM (inactive) | > 100 µM (inactive) | > 100 µM (inactive) | > 100 µM (inactive) | > 100 µM (inactive) | > 100 µM (inactive) | > 100 µM (inactive) | > 100 µM (inactive) | > 100 µM (inactive) | > 100 µM (inactive)
CN(C)CCCNC(=O)CCNC(=O)c1cc(NC(=O)c2cc(NC(=O)c3cc(NC(=O)c4nccn4C)cn3C)cn2C)cn1C | > 100 µM (inactive) | > 100 µM (inactive) | > 100 µM (inactive) | > 100 µM (inactive) | > 100 µM (inactive) | > 100 µM (inactive) | > 100 | > 100 µM (inactive) |  | 21.9 µM (inactive) | > 100 µM (inactive) | > 100 µM (inactive) | > 100 µM (inactive) | > 100 µM (inactive) | > 100 µM (inactive) | 31 µM (inactive) | 5.47 µM (inactive) | > 100 µM (inactive) | > 100 µM (inactive)
COc1ccc(N(C)S(=O)(=O)c2ccccc2)cc1 | 94.8 µM (inactive) | > 100 µM (inactive) | > 100 µM (inactive) | > 100 µM (inactive) | 61.8 µM (inactive) | > 100 µM (inactive) | > 100 | > 100 µM (inactive) | > 100 µM (inactive) | > 100 µM (inactive) | > 100 µM (inactive) | > 100 µM (inactive) | 29.4 µM (inactive) | > 100 µM (inactive) | > 100 µM (inactive) | 53.1 µM (inactive) | > 100 µM (inactive) | > 100 µM (inactive) | 86.9 µM (inactive)
CC(C)(C)OC(=O)NCC(O)CNC(=O)OC(C)(C)C | > 100 µM (inactive) | > 100 µM (inactive) | > 100 µM (inactive) | > 100 µM (inactive) | > 100 µM (inactive) | > 100 µM (inactive) | > 100 | > 100 µM (inactive) | > 100 µM (inactive) | > 100 µM (inactive) | > 100 µM (inactive) | > 100 µM (inactive) | > 100 µM (inactive) | > 100 µM (inactive) | > 100 µM (inactive) | > 100 µM (inactive) | > 100 µM (inactive) |  | > 100 µM (inactive)
CC(=O)C1(C)CC(C#N)(C#N)C(C#N)=C1N (stereo not given) |  | > 100 µM (inactive) |  | > 100 µM (inactive) | > 100 µM (inactive) | > 100 µM (inactive) | > 100 | > 100 µM (inactive) | > 100 µM (inactive) | > 100 µM (inactive) | > 100 µM (inactive) | > 100 µM (inactive) | > 100 µM (inactive) | > 100 µM (inactive) | > 100 µM (inactive) | > 100 µM (inactive) | > 100 µM (inactive) | > 100 µM (inactive) | > 100 µM (inactive)
N#Cc1c(O)c(/C=N/c2ccc(Cl)cc2)c(=O)n2c1[nH]c1ccccc12 | > 100 µM (inactive) | > 100 µM (inactive) | > 100 µM (inactive) | > 100 µM (inactive) | > 100 µM (inactive) | > 100 µM (inactive) | 36.5 | > 100 µM (inactive) | > 100 µM (inactive) | > 100 µM (inactive) | > 100 µM (inactive) | > 100 µM (inactive) | > 100 µM (inactive) | > 100 µM (inactive) | > 100 µM (inactive) | > 100 µM (inactive) | > 100 µM (inactive) | > 100 µM (inactive) | > 100 µM (inactive)
CCOc1ccc(C(=O)/C=C2/Nc3ccccc3N/C2=C/C(=O)c2ccc(OCC)cc2)cc1 | 85.3 µM (inactive) | 37.6 µM (inactive) | > 100 µM (inactive) | 41.7 µM (inactive) | > 100 µM (inactive) | 57.9 µM (inactive) | 96.4 |  | 72.3 µM (inactive) | > 100 µM (inactive) | > 100 µM (inactive) | > 100 µM (inactive) | 81.3 µM (inactive) | 78.2 µM (inactive) | > 100 µM (inactive) | > 100 µM (inactive) | > 100 µM (inactive) | > 100 µM (inactive) | > 100 µM (inactive)
N#C/C(N)=C(\C#N)NC(=O)C(=O)N/C(C#N)=C(\N)C#N | > 100 µM (inactive) | > 100 µM (inactive) | > 100 µM (inactive) | 59.6 µM (inactive) | > 100 µM (inactive) | > 100 µM (inactive) | > 100 | > 100 µM (inactive) | > 100 µM (inactive) | > 100 µM (inactive) | > 100 µM (inactive) | > 100 µM (inactive) | 63.1 µM (inactive) | > 100 µM (inactive) | 9.38 µM (inactive) | > 100 µM (inactive) | > 100 µM (inactive) | > 100 µM (inactive) | > 100 µM (inactive)
Clc1ccccc1/C=C/c1ccnc2ccccc12 | 16.2 µM (inactive) | 20.7 µM (inactive) | 19.6 µM (inactive) | 19.5 µM (inactive) | 15.1 µM (inactive) | 15.8 µM (inactive) | 13.9 | 17.4 µM (inactive) | 16.1 µM (inactive) | 18.4 µM (inactive) | 16.8 µM (inactive) | 16.9 µM (inactive) |  | 15.7 µM (inactive) | 16.5 µM (inactive) | 13.6 µM (inactive) | 14.3 µM (inactive) | 16 µM (inactive) | 7.8 µM (inactive)
C=CCCCC1SC2=C(CC)CCCN2C1=O (stereo not given) |  | 47.9 µM (inactive) | 76.6 µM (inactive) | 48.5 µM (inactive) | 36.1 µM (inactive) | > 100 µM (inactive) | 40.2 | 86.7 µM (inactive) | 65.6 µM (inactive) | 89.7 µM (inactive) | > 100 µM (inactive) | > 100 µM (inactive) | 56.8 µM (inactive) | 53.8 µM (inactive) | 40.5 µM (inactive) | 32.5 µM (inactive) | 35.1 µM (inactive) | 58.3 µM (inactive) | 38.2 µM (inactive)
O=C(NC(N1CCN(c2cc3c(cc2F)c(=O)c(C(=O)O)cn3C2CC2)CC1)(C(F)(F)F)C(F)(F)F)c1ccccc1 | 32.1 µM (inactive) | 40.9 µM (inactive) | 55.8 µM (inactive) | 36.6 µM (inactive) | 26 µM (inactive) | 36.3 µM (inactive) | 22.1 | 29.2 µM (inactive) | 35.2 µM (inactive) | 33.9 µM (inactive) | 34.1 µM (inactive) | 38.5 µM (inactive) | 26.1 µM (inactive) | 34.1 µM (inactive) | 46.1 µM (inactive) | 35.6 µM (inactive) | 17.7 µM (inactive) | 24.1 µM (inactive) | 27.7 µM (inactive)
COC(=O)c1ccc2c(c1)CC1(C2)Cc2ccc3c(c2C1)CCC3 (stereo not given) |  | 37.9 µM (inactive) | 86.1 µM (inactive) | 17.4 µM (inactive) | 14.3 µM (inactive) | 42.8 µM (inactive) | 20.1 | 12.6 µM (inactive) | 0.809 µM (active) | 20.8 µM (inactive) | 47.6 µM (inactive) | 29.9 µM (inactive) | 15 µM (inactive) | 23.6 µM (inactive) | 17.7 µM (inactive) | 14.3 µM (inactive) | 20.7 µM (inactive) | 17.5 µM (inactive) | 21.3 µM (inactive)
COC(=O)[C@H](Cc1ccccc1)NC(=O)N(CCC#N)CCCCN(CCC#N)C(=O)N[C@@H](Cc1ccccc1)C(=O)OC | > 81.8 µM (inactive) | > 100 µM (inactive) | > 100 µM (inactive) | > 100 µM (inactive) | > 100 µM (inactive) |  | > 100 | > 100 µM (inactive) | > 100 µM (inactive) | > 100 µM (inactive) | > 100 µM (inactive) | > 100 µM (inactive) | > 100 µM (inactive) | > 100 µM (inactive) | > 58.1 µM (inactive) | > 100 µM (inactive) | > 100 µM (inactive) |  | > 100 µM (inactive)
Nc1ncnc2c1ccn2COC(CO)CO | > 100 µM (inactive) | > 100 µM (inactive) | > 100 µM (inactive) | > 100 µM (inactive) | > 100 µM (inactive) | > 100 µM (inactive) | > 100 | > 100 µM (inactive) | > 100 µM (inactive) | > 100 µM (inactive) | 46.2 µM (inactive) | > 100 µM (inactive) | 51.9 µM (inactive) | > 100 µM (inactive) | 49.4 µM (inactive) | > 100 µM (inactive) | 54.7 µM (inactive) | > 100 µM (inactive) | 97.1 µM (inactive)
